Results: patent US10004701B2, “Methods and compositions for treating infection” (UNIVERSITY OF ROCHESTER, priority 2012, dated 2018)
Read-outs that look alike come from different tables or passages of the source.

Assays:
Test in all cases: AK assay 384-well format, Prestwick library screening
E. coli = type: cell-based, Escherichia coli; conditions: 50 μM final drug concentration; for fold induction at 50 µM: Escherichia coli, 3 h
P. aeruginosa = type: cell-based, Pseudomonas aeruginosa; conditions: 50 μM final drug concentration; for fold induction at 50 µM: Pseudomonas aeruginosa, 3 h
K. pneumoniae = type: cell-based, Klebsiella pneumoniae; conditions: 50 μM final drug concentration; for fold induction at 50 µM: Klebsiella pneumoniae, 3 h
[1] = system: S. aureus strain USA300-0114; type: cell-based, Staphylococcus aureus; conditions: 50 μM final drug concentration; for fold induction at 50 µM: Staphylococcus aureus, USA300, 3 h
E. cloacae = type: cell-based, Enterobacter cloacae; conditions: 50 μM final drug concentration; for fold induction at 50 µM: Enterobacter cloacae, 3 h
[2] = system: A. baumannii strain 98-37-09; type: cell-based, Acinetobacter baumannii; conditions: 50 μM final drug concentration; for fold induction at 50 µM: Acinetobacter baumannii, 983709, 3 h
E. faecium = type: cell-based, Enterococcus faecium; conditions: 50 μM final drug concentration; for fold induction at 50 µM: Enterococcus faecium, 3 h
[3] = planktonic, cutoff for positive 3-fold increase

C=C1CC[C@H](O)C/C1=C/C=C1\CCC[C@]2(C)[C@@H]([C@H](C)CCCC(C)C)CC[C@@H]12 [Cholecalciferol]
fold induction at 50 µM (E. coli; planktonic E. coli, […], read-out: AK-based Prestwick Library Screening Results, E. coli (increase in extracellular AK activity)): 1
fold induction at 50 µM (P. aeruginosa; planktonic P. aeruginosa, […], read-out: AK-based Prestwick Library Screening Results, P. aeruginosa (increase in extracellular AK activity)): 0.9
fold induction at 50 µM (K. pneumoniae; planktonic K. pneumoniae, […], read-out: AK-based Prestwick Library Screening Results, K. pneumoniae (increase in extracellular AK activity)): 0.7
fold induction at 50 µM ([1]; planktonic S. aureus, […], read-out: AK-based Prestwick Library Screening Results, S. aureus (increase in extracellular AK activity)): 0.7
fold induction at 50 µM (E. cloacae; planktonic E. cloacae, […], read-out: AK-based Prestwick Library Screening Results, E. cloacae (increase in extracellular AK activity)): 1
fold induction at 50 µM ([2]; planktonic A. baumannii, […], read-out: AK-based Prestwick Library Screening Results, A. baumannii (increase in extracellular AK activity)): 0.8
fold induction at 50 µM (E. faecium; planktonic E. faecium, […], read-out: AK-based Prestwick Library Screening Results, E. faecium (increase in extracellular AK activity)): 0.9

O=C1C=CC(=O)c2c1ccc1c2ccc2ccccc21 [Chrysene-1,4-quinone]
fold induction at 50 µM (E. coli; planktonic, […], read-out: AK-based Prestwick Library Screening Results, E. coli (fold increase in extracellular AK activity)): 1.1
fold induction at 50 µM (P. aeruginosa; planktonic, […], read-out: AK-based Prestwick Library Screening Results, P. aeruginosa (fold increase in extracellular AK activity)): 1
fold induction at 50 µM (K. pneumoniae; planktonic, […], read-out: AK-based Prestwick Library Screening Results, K. pneumoniae (fold increase in extracellular AK activity)): 0.8
fold induction at 50 µM ([1]; planktonic, […], read-out: AK-based Prestwick Library Screening Results, S. aureus (fold increase in extracellular AK activity)): 0.1
fold induction at 50 µM (E. cloacae; planktonic, […], read-out: AK-based Prestwick Library Screening Results, E. cloacae (fold increase in extracellular AK activity)): 1.4
fold induction at 50 µM ([2]; planktonic, […], read-out: AK-based Prestwick Library Screening Results, A. baumannii (fold increase in extracellular AK activity)): 0.8
fold induction at 50 µM (E. faecium; planktonic, […], read-out: AK-based Prestwick Library Screening Results, E. faecium (fold increase in extracellular AK activity)): 0.9

O=c1cc(-c2ccccc2)oc2cc(O)cc(O)c12 [Chrysin]
fold induction at 50 µM (E. coli; planktonic, cutoff for positive-scoring molecules 3-fold increase, read-out: AK-based Prestwick Library Screening Results, E. coli (fold increase in extracellular AK activity)): 0.2
fold induction at 50 µM (P. aeruginosa; planktonic, cutoff for positive-scoring molecules 3-fold increase, read-out: AK-based Prestwick Library Screening Results, P. aeruginosa (fold increase in extracellular AK activity)): 0.1
fold induction at 50 µM (K. pneumoniae; planktonic, cutoff for positive-scoring molecules 3-fold increase, read-out: AK-based Prestwick Library Screening Results, K. pneumoniae (fold increase in extracellular AK activity)): 0.2
fold induction at 50 µM ([1]; planktonic, cutoff for positive-scoring molecules 3-fold increase, read-out: AK-based Prestwick Library Screening Results, S. aureus (fold increase in extracellular AK activity)): 0.2
fold induction at 50 µM (E. cloacae; planktonic, cutoff for positive-scoring molecules 3-fold increase, read-out: AK-based Prestwick Library Screening Results, E. cloacae (fold increase in extracellular AK activity)): 0.6
fold induction at 50 µM ([2]; planktonic, cutoff for positive-scoring molecules 3-fold increase, read-out: AK-based Prestwick Library Screening Results, A. baumannii (fold increase in extracellular AK activity)): 0.2
fold induction at 50 µM (E. faecium; planktonic, cutoff for positive-scoring molecules 3-fold increase, read-out: AK-based Prestwick Library Screening Results, E. faecium (fold increase in extracellular AK activity)): 0.3

Cc1cc(C2CCCCC2)n(O)c(=O)c1.NCCO [Ciclopirox ethanolamine]
AK-based Prestwick Library Screening Results, E. coli (fold increase in extracellular AK activity) (E. coli; [3]): 1.1
AK-based Prestwick Library Screening Results, P. aeruginosa (fold increase in extracellular AK activity) (P. aeruginosa; [3]): 1.0
AK-based Prestwick Library Screening Results, K. pneumoniae (fold increase in extracellular AK activity) (K. pneumoniae; [3]): 0.9
AK-based Prestwick Library Screening Results, S. aureus (fold increase in extracellular AK activity) [1, 3]: 0.7
AK-based Prestwick Library Screening Results, E. cloacae (fold increase in extracellular AK activity) (E. cloacae; [3]): 1.2
AK-based Prestwick Library Screening Results, A. baumannii (fold increase in extracellular AK activity) [2, 3]: 1.2
AK-based Prestwick Library Screening Results, E. faecium (fold increase in extracellular AK activity) (E. faecium; [3]): 1.6

O=C1CCc2cc(OCCCCc3nnnn3C3CCCCC3)ccc2N1 [Cilostazol]
fold induction at 50 µM (E. coli; planktonic E. coli, cutoff for positive-scoring molecules 3-fold increase, read-out: AK-based Prestwick Library Screening Results, E. coli (increase in extracellular AK activity)): 0.9
fold induction at 50 µM (P. aeruginosa; planktonic P. aeruginosa, cutoff for positive-scoring molecules 3-fold increase, read-out: AK-based Prestwick Library Screening Results, P. aeruginosa (increase in extracellular AK activity)): 0.9
fold induction at 50 µM (K. pneumoniae; planktonic K. pneumoniae, cutoff for positive-scoring molecules 3-fold increase, read-out: AK-based Prestwick Library Screening Results, K. pneumoniae (increase in extracellular AK activity)): 0.7
fold induction at 50 µM ([1]; planktonic S. aureus, cutoff for positive-scoring molecules 3-fold increase, read-out: AK-based Prestwick Library Screening Results, S. aureus (increase in extracellular AK activity)): 0.8
fold induction at 50 µM (E. cloacae; planktonic E. cloacae, cutoff for positive-scoring molecules 3-fold increase, read-out: AK-based Prestwick Library Screening Results, E. cloacae (increase in extracellular AK activity)): 0.9
fold induction at 50 µM ([2]; planktonic A. baumannii, cutoff for positive-scoring molecules 3-fold increase, read-out: AK-based Prestwick Library Screening Results, A. baumannii (increase in extracellular AK activity)): 0.9
fold induction at 50 µM (E. faecium; planktonic E. faecium, cutoff for positive-scoring molecules 3-fold increase, read-out: AK-based Prestwick Library Screening Results, E. faecium (increase in extracellular AK activity)): 0.9

CN/C(=N/CCSCc1nc[nH]c1C)NC#N [Cimetidine]
fold induction at 50 µM (E. coli; 384-well format, cutoff for positive-scoring molecules 3-fold increase, read-out: AK-based Prestwick Library Screening Results, E. coli (increase in extracellular AK activity)): 0.9
fold induction at 50 µM (P. aeruginosa; 384-well format, cutoff for positive-scoring molecules 3-fold increase, read-out: AK-based Prestwick Library Screening Results, P. aeruginosa (increase in extracellular AK activity)): 0.8
fold induction at 50 µM (K. pneumoniae; 384-well format, cutoff for positive-scoring molecules 3-fold increase, read-out: AK-based Prestwick Library Screening Results, K. pneumoniae (increase in extracellular AK activity)): 0.7
fold induction at 50 µM ([1]; 384-well format, cutoff for positive-scoring molecules 3-fold increase, read-out: AK-based Prestwick Library Screening Results, S. aureus (increase in extracellular AK activity)): 0.8
fold induction at 50 µM (E. cloacae; 384-well format, cutoff for positive-scoring molecules 3-fold increase, read-out: AK-based Prestwick Library Screening Results, E. cloacae (increase in extracellular AK activity)): 1
fold induction at 50 µM ([2]; 384-well format, cutoff for positive-scoring molecules 3-fold increase, read-out: AK-based Prestwick Library Screening Results, A. baumannii (increase in extracellular AK activity)): 0.8
fold induction at 50 µM (E. faecium; 384-well format, cutoff for positive-scoring molecules 3-fold increase, read-out: AK-based Prestwick Library Screening Results, E. faecium (increase in extracellular AK activity)): 0.9

C=C[C@H]1C[N@@]2CC[C@H]1C[C@@H]2[C@@H](O)c1ccnc2ccccc12 [Cinchonine]
fold induction at 50 µM (E. coli; planktonic, cutoff for positive 3-fold increase, read-out: AK-based Prestwick Library Screening Results, E. coli (fold increase in extracellular AK activity)): 1.2
fold induction at 50 µM (P. aeruginosa; planktonic, cutoff for positive 3-fold increase, read-out: AK-based Prestwick Library Screening Results, P. aeruginosa (fold increase in extracellular AK activity)): 1.1
fold induction at 50 µM (K. pneumoniae; planktonic, cutoff for positive 3-fold increase, read-out: AK-based Prestwick Library Screening Results, K. pneumoniae (fold increase in extracellular AK activity)): 1
fold induction at 50 µM ([1]; planktonic, cutoff for positive 3-fold increase, read-out: AK-based Prestwick Library Screening Results, S. aureus (fold increase in extracellular AK activity)): 1.6
fold induction at 50 µM (E. cloacae; planktonic, cutoff for positive 3-fold increase, read-out: AK-based Prestwick Library Screening Results, E. cloacae (fold increase in extracellular AK activity)): 1.5
fold induction at 50 µM ([2]; planktonic, cutoff for positive 3-fold increase, read-out: AK-based Prestwick Library Screening Results, A. baumannii (fold increase in extracellular AK activity)): 1.1
fold induction at 50 µM (E. faecium; planktonic, cutoff for positive 3-fold increase, read-out: AK-based Prestwick Library Screening Results, E. faecium (fold increase in extracellular AK activity)): 1.1

CCn1nc(C(=O)O)c(=O)c2cc3c(cc21)OCO3 [Cinoxacin]
fold induction at 50 µM (E. coli; cutoff for positive-scoring molecules 3-fold increase, read-out: AK-based Prestwick Library Screening Results, E. coli (fold increase in extracellular AK activity)): 10.3
fold induction at 50 µM (P. aeruginosa; cutoff for positive-scoring molecules 3-fold increase, read-out: AK-based Prestwick Library Screening Results, P. aeruginosa (fold increase in extracellular AK activity)): 1.2
fold induction at 50 µM (K. pneumoniae; cutoff for positive-scoring molecules 3-fold increase, read-out: AK-based Prestwick Library Screening Results, K. pneumoniae (fold increase in extracellular AK activity)): 2.1
fold induction at 50 µM ([1]; cutoff for positive-scoring molecules 3-fold increase, read-out: AK-based Prestwick Library Screening Results, S. aureus (fold increase in extracellular AK activity)): 1.3
fold induction at 50 µM (E. cloacae; cutoff for positive-scoring molecules 3-fold increase, read-out: AK-based Prestwick Library Screening Results, E. cloacae (fold increase in extracellular AK activity)): 1.4
fold induction at 50 µM ([2]; cutoff for positive-scoring molecules 3-fold increase, read-out: AK-based Prestwick Library Screening Results, A. baumannii (fold increase in extracellular AK activity)): 1.3
fold induction at 50 µM (E. faecium; cutoff for positive-scoring molecules 3-fold increase, read-out: AK-based Prestwick Library Screening Results, E. faecium (fold increase in extracellular AK activity)): 1.1
